# Measured values reported in US5773431A (priority 1997, dated 1998).
# Counter-ions that a name gives are not always drawn.
# How the values were obtained:
# [1] = test system: sterol 27-hydroxylase (CHO cells); assay: Sterol 27-hydroxylase activity in CHO cells (metabolites in medium by GLC-MS); format: cell-based, Chinese hamster
# Protocol: (§1) Bovine aortic endothelial (BAE) cells obtained from a slaughterhouse were plated at low density (2×10^5 cells/cm^2) in 100-mm dishes and were grown to confluence in Dulbecco's modified Eagle medium (DMEM) supplemented with 10% fetal bovine serum (FBS), 50 units/ml penicillin, and 50 units/ml streptomycin at 37° C. in a 5% CO2 atmosphere. The confluent monolayer was rinsed once with Hank's balanced salt solution, and 4 ml of DMEM containing 10% […] FBS and either 20 μM cholesterol dissolved in 2-hydroxypropyl-β-cyclodextrin or an equivalent amount of vehicle alone was added to each dish. Hep G2 cells and Chinese hamster ovary cells (CHO) were cultured under identical conditions and for the same length of time. At 24-h intervals, the media and cells were harvested. The medium obtained from each dish was analyzed for metabolites. Cells were pooled for immunoblot analysis.
# (§2) Following acidification and extraction into ethyl acetate, the dried residue was saponified. In some studies, solvolysis was also done prior to extraction.
# (§3) Using a Hewlett-Packard GLC-MS (Model #5890-5970) and a fused silica column (CP-sil 19 CB, 0.25 mm i.d., 25 m length; Chrompack, Raritan, N.J.), the appropriate TLC fractions were injected in the splitless mode with temperature programming from 260° C. to 270° C. at 1.0° C./min and a column head pressure of 5 psi.
# (§4) For the C27 acid, the ion pair that was used was m/z […] [methyl ester acetate mol ion=476-60 (acetate)] and m/z 416, and for the C24 acid, m/z 370 [mol ion methyl ester acetate=430-60 (acetate)] and m/z 373.
# [2] = test system: sterol 27-hydroxylase (Hep G2 cells); assay: Sterol 27-hydroxylase activity in Hep G2 cells (metabolites in medium by GLC-MS); format: cell-based; conditions: HEP G2 (n = 6), 72 h, 20 μM cholesterol; for Metabolites Derived from Sterol 27-Hydroxylase: 3βOH-5-cholen. a.: mean value of 2 dishes after solvolysis
# Protocol: as §1, §2, §3, §4
# [3] = test system: sterol 27-hydroxylase (BAE cells); assay: Sterol 27-hydroxylase activity in BAE cells (metabolites in medium by GLC-MS); format: cell-based, bovine; conditions: for Proportion of C27 bile acid of total metabolite: cholesterol-supplemented medium; for Synthesis by BAE cells: amount in medium: delipidated FBS + 20 nmol/ml cholesterol
# Protocol: as §1, §2, §3, §4
# [4] = test system: rabbit smooth muscle cells; assay: Rabbit smooth muscle cell proliferation (formazan formation from MTS); format: cell-based; conditions: 24 hr; for Optical density of wells (cell proliferation, MTS formazan): 20 μm, 5% delipidated FBS, control wells 0.402±0.037
# Protocol: Cell proliferation at 24 hr was measured using formazan formation from MTS which is known to correlate with the number of cells present in each well.
# [5] = test system: cholesterol synthesis and accumulation; conditions: cited from earlier work
# [6] = test system: smooth muscle cells derived from rat aorta; assay: Proliferation of smooth muscle cells derived from rat aorta; format: cell-based, rat (male Sprague-Dawley); conditions: 72 hr
# Protocol: (§5) Smooth muscle cells were cultured according to Ross (J. Cell. Biol., 50:172, 1971) from the intima-medial layer of male Sprague-Dawley rats (200-250 g). Cells were grown in monolayers at 37° C. in a humidified atmosphere of 5% CO2 in MEM supplemented with 10% FBS, 100 U/ml penicillin, 0.1 mg/ml streptomycin, […] tricine buffer and 1% non-essential amino acid solution (Corsini et al, Atherosclerosis, 101:117, 1993). The medium was changed every third day. Cells were used between the 4th and 10th passage. Cell viability was assessed by trypan blue exclusion. Smooth muscle cells were identified for growth behavior, morphology, and using monoclonal antibody specific for α-actin, using the isoform typical for smooth muscle cells. Human vascular myocytes were taken from a human femoral artery and grown under the same culture conditions.
# (§6) Smooth muscle cells derived from rat aorta were seeded at a density of 2×10^5 and those from the femoral artery at a density of 5×10^4. […] Cell proliferation was determined at 72 hr either by trypsinization of the monolayer and counting in a model ZM Coulter Counter or by incorporation of tritiated thymidine after a 3 hr incubation.
# [7] = in hydroxypropyl-beta-cyclodextrin vehicle
# [8] = test system: intimal thickening of abdominal aorta; assay: Vascular injury model: balloon-injured rabbit aorta, intimal thickening by intimal/medial (I/M) ratio; format: in vivo, New Zealand white rabbits
# Protocol: New Zealand white rabbits weighing 2.6 to 5.1 kgs were anesthetized with intramuscular ketamine 35 mg/kg. Additional injections of ketamine (100 mg/cc) and xylazine (20 mg/cc) in a 50/50 mixture were given as necessary in 1 ml increments. Keflin (Eli Lilly & Co.), 30/mg/kg was given intravenously (IV). A longitudinal incision was made on the medial aspect of the distal hind limb to expose the greater saphenous artery. Arteriotomy was performed, and a 3-F Fogarty embolectomy catheter (Edwards Laboratories, Santa Ana, Calif.) was introduced and advanced to the level of the diaphragmatic abdominal aorta. The catheter was withdrawn from the abdominal aorta with the balloon inflated to a pressure of about 20 mm hg. This maneuver was repeated for a total of three passes. The catheter was removed, and the saphenous artery was ligated. […]
# The abdominal aortas were fixed by perfusion with glutaraldehyde at physiological pressure via a catheter (14G Intracath) placed in the left ventricle. […] The entire intimal and medial areas in more than 2 sections per specimen were measured using Lucida computer calculation (Micro Brightfield, Inc.). The degree of intimal thickening was determined by calculating the intimal to medial area (I/M) ratio. Statistical significance of the difference in intimal/medial ratio between groups was calculated using student t-test. […]
# K-12 cells = assay: Cell proliferation of tumor cell line K-12; format: cell-based; conditions: K12, read-out: Concentration of 27-Hydroxycholesterol Yielding 50% Growth Inhibition; K-12 cells (adenocarcinoma line)
# Description: (§7) Conventional methods of cell culture were utilized in this experiment.
# [9] = test system: hamster aortic smooth muscle cells; conditions: six days, at the tested concentration; cited from earlier work
# [10] = test system: smooth muscle cells derived from human femoral artery; assay: Proliferation of smooth muscle cells derived from human femoral artery; format: cell-based; conditions: Human Femoral A, 72 hr, read-out: Percent of Control Growth
# Protocol: as §5, §6
# HCT-8 = assay: Cell proliferation of tumor cell line HCT-8; format: cell-based; conditions: read-out: Concentration of 27-Hydroxycholesterol Yielding 50% Growth Inhibition; HCT-8 (human colon carcinoma)
# Description: as §7
# [11] = Nonfasted rabbits, treated
# L1210 cells = assay: Cell proliferation of tumor cell line L1210; format: cell-based; conditions: read-out: Concentration of 27-Hydroxycholesterol Yielding 50% Growth Inhibition; L1210 cells (mouse leukemia cell line)
# Description: as §7
# restenosis = conditions: high doses, cited from earlier work
# intimal proliferation = conditions: cited from earlier work
# HCT-8 cells = assay: In vitro cytotoxicity test of uridyl derivative with HCT-8 cells (FIG. 1); format: cell-based, human
# Description: The results of the experimentation is illustrated in FIG. 1.
# [12] = CHO (n = 3), 72 h, 20 μM cholesterol
# [13] = BAE (n = 6), 72 h, 20 μM cholesterol
smiles,measurement,setting,value
C[C@H](CCC(=O)O)[C@H]1CC[C@H]2[C@@H]3CC=C4C[C@@H](O)CC[C@]4(C)[C@H]3CC[C@]12C [3β-hydroxy-5-cholenoic acid],Metabolites Derived from Sterol 27-Hydroxylase,[1]; [12],not detected
same,Amount in the medium from CHO cells,[1]; compared with Hep G2 or BAE cells,small amount
same,Metabolites Derived from Sterol 27-Hydroxylase,[2],1940 ± 270 pmol/mg/cell protein
same,Metabolites Derived from Sterol 27-Hydroxylase,[3]; [13],not detected
CC(CCC[C@@H](C)[C@H]1CC[C@H]2[C@@H]3CC=C4C[C@@H](O)CC[C@]4(C)[C@H]3CC[C@]12C)C(=O)O (stereo partly drawn) [3β-hydroxy-5-cholestenoic acid],Metabolites Derived from Sterol 27-Hydroxylase,[1]; [12],2 ± 1 pmol/mg/cell protein
same,Metabolites Derived from Sterol 27-Hydroxylase,[2],471 ± 126 pmol/mg/cell protein
same,Metabolites Derived from Sterol 27-Hydroxylase,[3]; [13],474 ± 118 pmol/mg/cell protein
same,Proportion of C27 bile acid of total metabolite,"[3]; BAE cells, 24 h",3.8%
same,Proportion of C27 bile acid of total metabolite,"[3]; BAE cells, 72 h",17%
same,Synthesis by BAE cells: amount in medium,[3]; 24 h,42.5 ± 6.1 pmol/ml medium
same,Synthesis by BAE cells: amount in medium,[3]; 48 h,112 ± 12.4 pmol/ml medium
same,Synthesis by BAE cells: amount in medium,[3]; 72 h,211 ± 48.3 pmol/ml medium
same,"Optical density of wells (cell proliferation, MTS formazan)",[4],0.357±0.22
CC(CN)CCC[C@@H](C)[C@H]1CC[C@H]2[C@@H]3CC=C4C[C@@H](O)CC[C@]4(C)[C@H]3CC[C@]12C (stereo partly drawn) [27-aminocholesterol],Potency as inhibitor of cholesterol synthesis and accumulation relative to 27-hydroxycholesterol,[5],more potent
"C[C@@H](CO)CCC[C@@H](C)[C@H]1CC[C@H]2[C@@H]3CC=C4C[C@@H](O)CC[C@]4(C)[C@H]3CC[C@]12C [27-hydroxycholesterol, cholest-5-ene-3β, 27-diol]",activity at 1 µM,"[6]; 1.0 μM, read-out: Percent of Control Growth",90%
same,activity at 5 µM,"[6]; 5.0 μM, p < 0.01, read-out: Percent of Control Growth",40%
same,activity at 7.5 µM,"[6]; 7.5 μM, read-out: Percent of Control Growth",18%
same,Viscosity of preparation,[7],very viscous
same,Amount present in medium from CHO cells (below the limit of detection),"[1]; 72 h, cholesterol-supplemented medium",< 10 ng per assay
same,Metabolites Derived from Sterol 27-Hydroxylase,[1]; [12],not detected
same,Reduction of the degree of intimal thickening as compared with the control group,"[8]; Run II, 14 days",1/2
same,Metabolites Derived from Sterol 27-Hydroxylase,[2],1622 ± 291 pmol/mg/cell protein
same,IC50,K-12 cells,3.7 µM
same,Inhibition of proliferation,[9],about 50%
same,Metabolites Derived from Sterol 27-Hydroxylase,[3]; [13],2555 ± 348 pmol/mg/cell protein
same,Synthesis by BAE cells: amount in medium,[3]; 24 h,1089 ± 111 pmol/ml medium
same,Synthesis by BAE cells: amount in medium,[3]; 48 h,1064 ± 161 pmol/ml medium
same,Synthesis by BAE cells: amount in medium,[3]; 72 h,1029 ± 99 pmol/ml medium
same,activity at 1 µM,[10]; 1.0 μM,100%
same,activity at 5 µM,"[10]; 5.0 μM, p < 0.01",53%
same,IC50,HCT-8,11.5 µM
same,"Optical density of wells (cell proliferation, MTS formazan)",[4],0.350±0.021
same,Reduction of optical density compared to control wells,[4]; p<0.01,significant reduction
same,"Distribution of Plasma 27-Hydroxycholesterol, LDL",[11],55%
same,IC50,L1210 cells,1.2 µM
CC[C@H](C)C(=O)O[C@H]1C[C@@H](C)C=C2C=C[C@H](C)[C@H](CC[C@@H]3C[C@@H](O)CC(=O)O3)[C@H]21 [Lovastatin],Restenosis,restenosis; six months following percutaneous transluminal coronary angioplasty,did not decrease restenosis
same,LDL-cholesterol level,restenosis,markedly decrease
"Cc1ccc(C(=O)Nc2ccc(S(=O)(=O)O)c3cc(S(=O)(=O)O)cc(S(=O)(=O)O)c23)cc1NC(=O)c1cccc(NC(=O)Nc2cccc(C(=O)Nc3cc(C(=O)Nc4ccc(S(=O)(=O)O)c5cc(S(=O)(=O)O)cc(S(=O)(=O)O)c45)ccc3C)c2)c1 [Suramin, suramin, reference compound]",Inhibition of intimal proliferation,intimal proliferation,shown to inhibit intimal proliferation
same,Mean Intima/Media Ratio,"[8]; Run I, 14-day, test group of 5 rabbits, suramin p < 0.05, 27-hydroxycholesterol 10 mg i.v. day before surgery, 5 mg day of surgery, 5 mg twice a day days 1 to 14, in 45% HPBCD",0.4089 ± 0.034
CC(C)CCC[C@@H](C)[C@H]1CC[C@H]2[C@@H]3CC=C4C[C@@H](O)CC[C@]4(C)[C@H]3CC[C@]12C [cholesterol],"Metabolites Derived from Sterol 27-Hydroxylase, Total",[1]; [12],2 pmol/mg/cell protein
same,"Metabolites Derived from Sterol 27-Hydroxylase, Total",[2],4033 pmol/mg/cell protein
same,"Metabolites Derived from Sterol 27-Hydroxylase, Total",[3]; [13],3029 pmol/mg/cell protein
same,Metabolites as percent of the cholesterol added to the medium,"[3]; BAE cells, 20 nmol/ml cholesterol, 72 h",approximately 5.8%
"C[C@@H](CO)CCC[C@@H](C)[C@H]1CC[C@H]2[C@@H]3CC=C4C[C@@H](OP(=O)(O)OC[C@H]5O[C@@H](n6ccc(=O)[nH]c6=O)[C@H](O)[C@@H]5O)CC[C@]4(C)[C@H]3CC[C@]12C [uridine derivative, sodium salt of 3-[(25R)-26-hydroxycholesteryl]5'-uridyl monophosphate]",Inhibition of cell viability: death of HCT-8 cells,HCT-8 cells; 500 μM,cell death
same,Percentage of viable cells,"HCT-8 cells; 100 to 500 μM, after 5 days of exposure",drops dramatically
